# How the values were obtained:
# Format in all cases: cell-based
# HBsAg = experiment: PHH HBV natural infection assay, HBsAg (alphalisa); settings: Hepatitis B virus, 72 h, read-out: HBsAg IC50
# Description: (§1) Detailed procedures regarding primary human hepatocyte (PHH) HBV natural infection assay are described as below. One tube of frozen PHH (10 million cells) is thawed in 37° C. water bath and then transferred to 20 mL of PHH thawing medium (Sigma, InVitroGRO HT Medium, Cat. S03319) with gently mixing. The cells were then centrifuged at […] for 5 min, the supernatant was discarded and the tube was refilled with 25 mL of PHH plating medium (Sigma, InVitroGRO CP Medium, Cat. S03317). The tube was shaken very gently to re-suspend all cells, and then 50 μl of cells were transferred to each well 384-well collagen I coated plate with appropriate liquid handling equipment, e.g. Integra VIAFLO384 or Agilent Bravo. The cells were then cultured for 24 hours in a cell incubator. For HBV infection, after PHH attachment on the culture plate, the plating medium was removed and replenished with PHH culture medium containing HBV virus. The PHH culture medium was prepared with Dulbecco's Modified Eagle Medium (DMEM)/F12 (1:1 in volume ratio) containing 10% fetal bovine serum (Gibco, Cat.10099141), 5 ng/mL human epidermal growth factor (Gibco, Cat.PHG0311L), 20 ng/mL dexamethasone (Sigma, Cat.D4902-100 mg), 250 ng/mL human recombinant insulin (Gibco, Cat.41400045) and 100 U/mL penicillin. HBV virus at 200 genome equivalent (GE) per cell with 4% PEG8000 (Sigma, Cat.P1458) containing culture medium were added to the PHH culture medium for infection. The cells were then cultured for 24 hours in cell incubator. Then the cell culture supernatant was removed. The HBV-infected PHH were cultured with sandwich culture method with PHH culture medium containing 1% DMSO and 0.25 mg/mL matrix gel for 72 hours. The supernatant was then refreshed with PHH culture medium containing different concentrations of testing compounds for two times with 72-hour interval. At the end of treatment, the supernatant was collected for viral markers measurements, including HBsAg, HBeAg, HBV DNA and cytotoxicity. HBsAg and HBeAg were detected using alphalisa method using their specific antibodies. For HBV DNA detection, HBV DNA Quantitative Fluorescence Diagnostic Kit (Sansure Biotech Inc.) was used following the manufacture's protocol. Cytotoxicity was determined using Cell Counting Kit-8 (CCK8, Dojindo Molecular Technologies, Inc.).
# (§2) The compounds of the present invention were tested for their capacity to inhibit HBsAg and HBeAg as described herein.
# HBeAg = experiment: PHH HBV natural infection assay, HBeAg (alphalisa); settings: Hepatitis B virus, 72 h, read-out: HBeAg IC50
# Description: as §1, §2
# [1] = PHH natural infection assay, cytotoxicity (Cell Counting Kit-8); settings: human; HBV-infected PHH, CCK8
# Description: as §1
Compound,IC50 (HBsAg) [nM],IC50 (HBeAg) [nM],CC50 at 144 h [1] [nM]
"C[C@H](c1ccc(C(=O)NC23CC(c4nc5ccc(Cl)cc5s4)(C2)C3)o1)S(C)(=O)=O (single isomer, unassigned) [Example 56a]",230,230,15000
"C[C@@H](c1ccc(C(=O)NC23CC(c4nc5ccc(Cl)cc5s4)(C2)C3)o1)S(C)(=O)=O (single isomer, unassigned) [Example 56b]",190,160,14700
"CS(=O)(=O)C1(c2ccc(C(=O)NC34CC(c5nc6ccc(Br)cc6s5)(C3)C4)o2)CC1 [Example 2, N-[1-(6-bromo-1,3-benzothiazol-2-yl)-3-bicyclo[1.1.1]pentanyl]-5-(1-methylsulfonylcyclopropyl)furan-2-carboxamide]",170,110,5850
CS(=O)(=O)C1(c2nsc(C(=O)NC34CC(c5nc6ccc(Br)cc6s5)(C3)C4)n2)CC1 [Example 4],70,50,4220
"CS(=O)(=O)C1(c2ccc(C(=O)NC34CC(c5nc6cc(Br)ccc6s5)(C3)C4)o2)CC1 [Example 6, N-(3-(5-bromobenzo[d]thiazol-2-yl)bicyclo[1.1.1]pentan-1-yl)-5-(1-(methylsulfonyl)cyclopropyl)furan-2-carboxamide]",170,100,6030
CS(=O)(=O)C1(c2nsc(C(=O)NC34CC(c5nc6cc(Br)ccc6s5)(C3)C4)n2)CC1 [Example 7],100,60,8520
CS(=O)(=O)C1(c2ccc(C(=O)NC34CC(c5nc6ccc(C#N)cc6s5)(C3)C4)o2)CC1 [Example 8],790,720,12500
C#Cc1ccc2nc(C34CC(NC(=O)c5ccc(C6(S(C)(=O)=O)CC6)o5)(C3)C4)sc2c1 [Example 10],370,270,11000
CS(=O)(=O)C1(c2ccc(C(=O)NC34CC(c5nc6ccc(F)cc6s5)(C3)C4)o2)CC1 [Example 11],480,360,16300
CS(=O)(=O)Cc1ccc(C(=O)NC23CC(c4nc5ccc(Cl)cc5s4)(C2)C3)o1 [Example 13],1020,800,> 50000
CCC(c1ccc(C(=O)NC23CC(c4nc5ccc(Cl)cc5s4)(C2)C3)o1)S(C)(=O)=O (stereo not drawn) [Example 14],200,150,> 10000
CS(=O)(=O)C1(c2ccc(C(=O)NC34CC(c5nc6ccc(Cl)cc6s5)(C3)C4)o2)CC1 [Example 15],210,160,6330
CC(C)(c1ccc(C(=O)NC23CC(c4nc5ccc(Cl)cc5s4)(C2)C3)o1)S(C)(=O)=O [Example 16],290,240,3760
"CC(c1ccc(C(=O)NC23CC(c4nc5ccc(Cl)cc5s4)(C2)C3)o1)S(C)(=O)=O (stereo not drawn) [Example 17, N-[3-(6-chloro-1,3-benzothiazol-2-yl)-1-bicyclo[1.1.1]pentanyl]-5-(1-methylsulfonylethyl)furan-2-carboxamide]",170,150,14600
CC(C)(c1ncc(C(=O)NC23CC(c4nc5ccc(Cl)cc5s4)(C2)C3)o1)S(C)(=O)=O [Example 22],720,470,7550
CC(C)(c1cc(C(=O)NC23CC(c4nc5ccc(Cl)cc5s4)(C2)C3)sn1)S(C)(=O)=O [Example 27],840,650,8550
CC(c1nsc(C(=O)NC23CC(c4nc5ccc(Cl)cc5s4)(C2)C3)n1)S(C)(=O)=O (stereo not drawn) [Example 31],740,630,5710

Compound,IC50 (HBsAg) [nM],IC50 (HBeAg) [nM],CC50 at 144 h [1] [nM]
CC(C)(c1nsc(C(=O)NC23CC(c4nc5ccc(Cl)cc5s4)(C2)C3)n1)S(C)(=O)=O [Example 32],430,330,2950
CC(n1ccc(C(=O)NC23CC(c4nc5ccc(Cl)cc5s4)(C2)C3)n1)S(C)(=O)=O (stereo not drawn) [Example 34],440,390,7010
CS(=O)(=O)C(Br)c1ccc(C(=O)NC23CC(c4nc5cc(Cl)ccc5s4)(C2)C3)o1 (stereo not drawn) [Example 43],500,480,22800
CCC(c1ccc(C(=O)NC23CC(c4nc5cc(Cl)ccc5s4)(C2)C3)o1)S(C)(=O)=O (stereo not drawn) [Example 44],230,160,20400
CC(C)(c1ccc(C(=O)NC23CC(c4nc5cc(Cl)ccc5s4)(C2)C3)o1)S(C)(=O)=O [Example 45],390,250,9940
CC(c1ccc(C(=O)NC23CC(c4nc5cc(Cl)ccc5s4)(C2)C3)o1)S(C)(=O)=O (stereo not drawn) [Example 46],370,230,15300
CS(=O)(=O)C1(c2ccc(C(=O)NC34CC(c5nc6cc(Cl)ccc6s5)(C3)C4)o2)CC1 [Example 47],320,220,6620
C[S+]([O-])C(C)(C)c1ccc(C(=O)NC23CC(c4nc5cc(Cl)ccc5s4)(C2)C3)o1 (stereo not drawn) [Example 50],100,80,1640
"CC(c1ccn(C(=O)NC23CC(c4nc5ccc(Cl)cc5s4)(C2)C3)n1)S(C)(=O)=O (stereo not drawn) [Example 58, N-[3-(6-chloro-1,3-benzothiazol-2-yl)-1-bicyclo[1.1.1]pentanyl]-3-(1-methylsulfonylethyl)pyrazole-1-carboxamide]",340,240,6060
CC(C)(c1ccn(C(=O)NC23CC(c4nc5ccc(Cl)cc5s4)(C2)C3)n1)S(C)(=O)=O [Example 60],122,90,4820
CC(C)(c1ccn(C(=O)NC23CC(c4nc5cc(Br)ccc5s4)(C2)C3)n1)S(C)(=O)=O [Example 61],110,80,2090
CS(=O)(=O)C1(c2ccn(C(=O)NC34CC(c5nc6cc(Br)ccc6s5)(C3)C4)n2)CC1 [Example 62],70,40,3830
CS(=O)(=O)C1(c2ccn(C(=O)NC34CC(c5nc6ccc(Cl)cc6s5)(C3)C4)n2)CC1 [Example 63],110,80,5060
"CS(=O)(=O)C1(c2ncc(C(=O)NC34CC(c5nc6ccc(Cl)cc6s5)(C3)C4)o2)CC1 [Example 67, N-[3-(6-chloro-1,3-benzothiazol-2-yl)-1-bicyclo[1.1.1]pentanyl]-2-(1-methylsulfonylcyclopropyl)oxazole-5-carboxamide]",400,320,7250
"CS(=O)(=O)C(Cl)c1ccc(C(=O)NC23CC(c4nc5cc(Cl)ccc5s4)(C2)C3)o1 (stereo not drawn) [Example 75, 5-(chloro(methylsulfonyl)methyl)-N-(3-(5-chlorobenzo[d]thiazol-2-yl)bicyclo[1.1.1]pentan-1-yl)furan-2-carboxamide]",550,430,16800
"CS(=O)(=O)C1(c2noc(C(=O)NC34CC(c5nc6ccc(Cl)cc6s5)(C3)C4)n2)CC1 [Example 76, N-[3-(6-chloro-1,3-benzothiazol-2-yl)-1-bicyclo[1.1.1]pentanyl]-3-(1-methylsulfonylcyclopropyl)-1,2,4-oxadiazole-5-carboxamide]",700,400,4270
"CS(=O)(=O)C1(c2nc(C(=O)NC34CC(c5nc6ccc(Br)cc6s5)(C3)C4)no2)CC1 [Example 77, N-[3-(6-bromo-1,3-benzothiazol-2-yl)-1-bicyclo[1.1.1]pentanyl]-5-(1-methylsulfonylcyclopropyl)-1,2,4-oxadiazole-3-carboxamide]",860,620,6490
